The values below come from ChEMBL document CHEMBL4033787, “Glutathione S-Transferase π-Activatable O2-(Sulfonylethyl Derived) Diazeniumdiolates Potently Suppress Melanoma in Vitro and in Vivo” (J Med Chem, 2018).

For series [1], the system named is B16. Briefly: Antiproliferative activity against mouse B16 cells after 72 hrs by MTT assay. The class given is functional, cell-based. The conditions noted are these: B16, 72 h. Background: Tetrazolium assays rely on reduction of a dye to a coloured formazan, in cell work by metabolically active cells.
Series [2] relates to MCF7. The experiment in a line: Antiproliferative activity against human MCF7 cells after 72 hrs by MTT assay. The class given is functional, cell-based. The conditions noted are these: MCF7, 72 h.
The subject of a further series is HT-29. Briefly: Antiproliferative activity against human HT-29 cells at 1 uM after 72 hrs by MTT assay. It counts as functional, cell-based.
Series [3] concerns MCF7. The experiment in a line: Antiproliferative activity against human MCF7 cells at 1 uM after 72 hrs by MTT assay. It counts as functional, cell-based.
The test system of the next series is 9L-2. Briefly: Antiproliferative activity against rat 9L-2 cells at 1 uM after 72 hrs by MTT assay. It counts as functional, cell-based.
Series [4] deals with B16. Briefly: Antiproliferative activity against mouse B16 cells at 1 uM after 72 hrs by MTT assay. It counts as functional, cell-based.
Series [5] concerns B16. Briefly: Antitumor activity against mouse B16 cells implanted in nude mouse assessed as inhibition of tumor growth at 15 mg/kg, iv administered every other day for 20 days relative to control. The conditions noted are these: 480 h, read-out: TGI. The class given is functional.
Series [6] can be described thus: Substrate activity at GST-Pi in mouse JB6 Cl 30-7b cells assessed as NO release at 20 uM after 8 hrs by Griess assay. The class given is ADME, cell-based. Background: The Griess reaction detects nitrite, a stable product of nitric oxide.
The test system of series [7] is B16. Briefly: Antitumor activity against mouse B16 cells implanted in iv dosed nude mouse assessed as reduction in tumor weight administered every other day for 20 days. It counts as functional, organism-based.
The subject of series [8] is B16. Briefly: Antiproliferative activity against mouse B16 cells at 3 uM after 24 hrs in presence of GST-Pi inhibitor etacrynic acid by MTT assay. It counts as functional, cell-based.
The nature of series [9]: Substrate activity at GST-Pi in mouse B16 cells assessed as increase in NO release at 20 uM by Griess assay. It counts as ADME, cell-based. The settings on record: TDE = time-dependent effect.
Series [10] in a line: Substrate activity at GST-Pi in mouse B16 cells assessed as increase in NO release after 8 hrs by DAF-FM DA dye-based flow cytometric analysis. It counts as ADME, cell-based. A general note: A flow cytometer gives signals particle by particle.
The test system of series [11] is B16. The experiment in a line: Induction of nitration of mitochondrial cytochrome C in mouse B16 cells implanted in iv dosed mouse assessed as increase in nitrated cytochrome C levels administered every other day for 20 days by Western blot analysis. The class given is functional, organism-based.
Series [12] deals with B16. Briefly: Induction of nitration of mitochondrial cytochrome C in mouse B16 cells assessed as increase in nitrated cytochrome C levels at 10 uM after 24 hrs in presence of NO scavenger hemoglobin by Western blot analysis. The class given is functional, cell-based.
Series [13] relates to B16. The experiment in a line: Antiproliferative activity against mouse B16 cells at 3 uM after 24 hrs in presence of NO scavenger carboxy-PTIO by MTT assay. It counts as functional, cell-based.
Series [14] concerns B16. The experiment in a line: Induction of nitration of mitochondrial cytochrome C in mouse B16 cells assessed as increase in nitrated cytochrome C levels at 10 uM after 24 hrs by Western blot analysis. The class given is functional, cell-based.
Series [15] is described as follows: Drug metabolism assessed as GSTalpha (unknown origin)-mediated compound decomposition at 40 uM by UV spectrophotometric analysis. The class given is ADME. The settings on record: human.
Series [16] is described as follows: Stability of compound in normal saline after 500 mins by UV spectrophotometric analysis. The class given is physicochemical. The conditions noted are these: buffer.
The test system of series [17] is B16. Briefly: Antitumor activity against mouse B16 cells implanted in iv dosed nude mouse assessed as reduction in tumor volume administered every other day for 20 days. The class given is functional, organism-based.
Series [18] in a line: Antiproliferative activity against mouse JB6 Cl 30-7b cells after 72 hrs by MTT assay. The class given is cell-based.
For series [19], the system named is Mus musculus. Briefly: Toxicity in mouse assessed as weight loss at 7.5 to 30 mg/kg, iv dosed for every other day for 20 days. It counts as organism-based. The conditions noted are these: in vivo, 480 h.
Series [20] relates to B16. The experiment in a line: Antitumor activity against mouse B16 cells implanted in nude mouse assessed as inhibition of tumor growth at 30 mg/kg, iv administered every other day for 20 days relative to control. It counts as functional. The settings on record: 480 h, read-out: TGI.
Series [21] deals with Mus musculus. Briefly: Toxicity in mouse assessed as mortality at 7.5 to 30 mg/kg, iv dosed for every other day for 20 days. The class given is organism-based. The conditions noted are these: in vivo, 480 h.
Series [22] is described as follows: Drug metabolism assessed as GST-Pi (unknown origin)-mediated compound decomposition at 40 uM by UV spectrophotometric analysis. It counts as ADME. The settings on record: human, TDE = time-dependent effect.
Series [23] is described as follows: Selectivity index, ratio of IC50 for mouse JB6 Cl 30-7b cells to IC50 for mouse B16 cells. The class given is functional.
Series [24] has as its system B16. Briefly: Antiproliferative activity against mouse B16 cells at 3 uM after 24 hrs in presence of NO scavenger hemoglobin by MTT assay. It counts as functional, cell-based.
In series [25] the test system is B16. The experiment in a line: Antitumor activity against mouse B16 cells implanted in nude mouse assessed as inhibition of tumor growth at 7.5 mg/kg, iv administered every other day for 20 days relative to control. The settings on record: 480 h, read-out: TGI. The class given is functional.
In series [26] the test system is B16. The experiment in a line: Antiproliferative activity against mouse B16 cells after 72 hrs in presence of equimolar concentration of 4-hydroxy-1-(oxido-NNO-azoxy)piperidine by MTT assay. The class given is functional, cell-based. The conditions noted are these: B16, 72 h.
For series [27], the system named is B16. Briefly: Antiproliferative activity against mouse B16 cells after 72 hrs in presence of equimolar concentration of (S)-2-amino-5-((R)-1-(carboxymethylamino)-1-oxo-3-(vinylsulfonyl)propan-2-ylamino)-5-oxopentanoic acid by MTT assay. The class given is functional, cell-based. The conditions noted are these: B16, 72 h.

SMILES strings stand for the structures. The source made the active and inactive calls. The calls are words filed in the database; no cut-off is given here.

A word on the IC50: it is the concentration that inhibits the measured activity by half. Consider `CCOC(=O)N1CCN(/[N+]([O-])=N/OCCS(=O)(=O)C[C@H](NC(=O)CC[C@H](N)C(=O)OC)C(=O)NCC(=O)OC)CC1`, for which the results for the IC50 in the series on B16 [1] and in the series on MCF7 [2] were 195 nM and 338 nM, respectively. Further, the outcome with HT-29, with MCF7 [3] and with B16 [4] was Active. Further, in the series on 9L-2, the result was inactive.

On to `CN(C)/N=N/c1[nH]cnc1C(N)=O` [DACARBAZINE], for which the inhibition in vivo at 15 mg/kg in the series with B16 [5] is 49.9%.

With `N[C@@H](CCC(=O)N[C@@H](CS(=O)(=O)CCO/N=[N+](\[O-])N1CCCC1)C(=O)NCC(=O)O)C(=O)O`, the outcome in the series on HT-29, with MCF7 [3] and in the series on B16 [4] was Active. In the series with 9L-2, the result was inactive.

For `N[C@@H](CCC(=O)N[C@@H](CS(=O)(=O)CCO/N=[N+](\[O-])N1CCCC1CO)C(=O)NCC(=O)O)C(=O)O` (stereo not given in full), the outcome in the series on HT-29, in the series with MCF7 [3] and with B16 [4] was Active. In the series on 9L-2, the outcome was inactive.

Take `N[C@@H](CCC(=O)N[C@@H](CS(=O)(=O)CCO/N=[N+](\[O-])N(CCCl)CCCl)C(=O)NCC(=O)O)C(=O)O`: the IC50 with B16 [1] came out at 404 nM; with MCF7 [2], 611 nM. Further, the outcome with HT-29, in the series with MCF7 [3] and in the series with B16 [4] was Active. Also, the outcome in the series on 9L-2 was inactive.

Take `CCOC(=O)N1CCN(/[N+]([O-])=N/Oc2ccc([N+](=O)[O-])cc2[N+](=O)[O-])CC1`: the IC50 with B16 [1] is 1340 nM; with MCF7 [2], 993 nM. In series [6], the Drug metabolism result is “Metabolite_Notdetected”.

As for `N[C@@H](CCC(=O)N[C@@H](CS(=O)(=O)CCO/N=[N+](\[O-])N1CCC(O)CC1)C(=O)NCC(=O)O)C(=O)O`, the IC50 in the series on B16 [1] came out at 184 nM; in the series on MCF7 [2], 306 nM; in series [18], 1400 nM. For the same compound, the Activity result in the series on B16 [7] was “Dose-dependent effect”; in the series on B16 [11], “Dose-dependent effect”; with B16 [17] it was “Dose-dependent effect”; with Mus musculus [19], “Non-Toxic”; in the series on Mus musculus [21], “Non-Toxic”. The outcome with B16 [8], in the series with B16 [13], in the series with 9L-2 and in the series on B16 [24] was inactive. Moreover, the Drug metabolism result is on record as “Tde” in series [9]; “Dose-dependent effect” in [10]; “Metabolite_Notdetected” in series [6]; “Metabolite_Notdetected” in series [15]; “Tde” in [22]. For the same compound, the outcome in the series with B16 [12], in the series with B16 [14], with HT-29, in the series with MCF7 [3] and in the series on B16 [4] was Active. Further, the inhibition in vivo at 15 mg/kg with B16 [5] amounted to 76.2%. In addition, the Stability result in [16] is “Stable”. Also, the inhibition in vivo at 30 mg/kg with B16 [20] turned out to be 84.8%. In addition, in series [23], the “Ratio IC50” value is reported as 8. In addition, the inhibition in vivo at 7.5 mg/kg in the series with B16 [25] stood at 42.3%.

Regarding `C=CS(=O)(=O)C[C@H](NC(=O)CC[C@H](N)C(=O)O)C(=O)NCC(=O)O`, the 50% inhibitory concentration (IC50) with B16 [1] came out at 1910 nM; in the series on B16 [26], 553 nM. For the same compound, the outcome in the series with B16 [12] was inactive.

Turning to `CCOC(=O)N1CCN(/[N+]([O-])=N/OCCS(=O)(=O)C[C@H](NC(=O)CC[C@H](N)C(=O)O)C(=O)NCC(=O)O)CC1`, the outcome with HT-29, in the series with MCF7 [3] and with B16 [4] was Active. In the series with 9L-2, the outcome was inactive.

For the compound `N[C@@H](CCC(=O)N[C@@H](CS(=O)(=O)CCOP(=O)(N(CCCl)CCCl)N(CCCl)CCCl)C(=O)N[C@@H](C(=O)O)c1ccccc1)C(=O)O` [CANFOSFAMIDE], the IC50 amounted to 710 nM in the series with B16 [1] and 870 nM with MCF7 [2].

Turning to `CCOC(=O)CNC(=O)[C@H](CS(=O)(=O)CCO/N=[N+](\[O-])N(CCCl)CCCl)NC(=O)CC[C@H](N)C(=O)OCC`, the result in the series with HT-29, in the series on MCF7 [3] and in the series on B16 [4] was Active. In the series with 9L-2, the outcome was inactive.

As to `COC(=O)CNC(=O)[C@H](CS(=O)(=O)CCO/N=[N+](\[O-])N(CCCl)CCCl)NC(=O)CC[C@H](N)C(=O)OC`, the outcome in the series with HT-29, in the series with MCF7 [3] and in the series on B16 [4] was Active. The outcome in the series with 9L-2 was inactive.

Turning to `[O-]/[N+](=N\O)N1CCC(O)CC1`, the IC50 in the series with B16 [1] was found to be 928 nM; in the series on B16 [27], 553 nM.
